Test [1] addresses T1, Vif function of inhibiting A3G CDA (Human immunodeficiency virus type 1 group M subtype B, UniProt P69723). The class given is biochemical, HIV-1. From the text: This assay detects C to U mutation using a highly specific Stu I restriction enzyme digestion method. FIG. 4A is a schematic diagram of the PCR and restriction digestion-based CDA assay. CCC-150 is converted to CCU-150 under the enzymatic activity of A3G. […] In the presence of Vif, Vif will inhibit A3G enzymatic activity, so that reduced or no CCU-150 will be produced. Therefore, less or no Stu I cutting sites will form, and no digestion will occur.
The CDA products were subjected to PCR followed by Stu I digestion. The digestion products were applied to a 10% polyacrylamide gel for separation. SYBR Gold was used to visualize the bands. L-Cefixime refers to Compound I identified above.

In test [2] the target is T1, Vif function of inhibiting A3G CDA. As to the kind of experiment: biochemical. The class given is biochemical, HIV-1. Particulars: for hit for restoring A3G CDA in the presence of Vif: 10 μM compounds, 20% cutoff stringency, i.e. 20% increase in A3G CDA versus controls, positive control set as 1. From the text:
The A3G CDA edits the CCC sequence to predominantly to a CCU sequence. To specifically measure the C to U rate, three reverse primers R1, R2, and R3 were designed in the initial study.
Using the qPCR-based screening assay described in Example 1, the NCI Diversity Set VI, NCI Mech Set V, and NIH SMR were screened against Vif function of inhibiting A3G. The NCI Diversity Set VI was derived from almost 140,000 compounds available for distribution in the library of the NCI Developmental Therapeutics Program. […] The qPCR-based CDA assay was used to screen the libraries in 96-well plates with negative controls (no A3G and Vif), positive control (no Vif), and 10 μM compounds. Hits were selected at 20% cutoff stringency (above 0.2), i.e., 20% increase in A3G CDA versus controls. Any compounds that restored A3G activity by 20% or more were selected. The positive control was set as 1.

Test [3] deals with HIV in PBMC. Particulars: previous report, Pery E et al. Virology 2015; cited from earlier work.
The subject of test [4] is A3G expression, Gag expression and processing. Description: Western blot of A3G stability and Gag in transfected 293T cells. The class given is cell-based. The note with it: 5 μM. Here is the method: An A3G expression vector was co-transfected with Vif, or with the empty vector as control. The A3G expression vector was also co-transfected with either a wild-type viral construct HXB2, Vif deficient viral construct HXB2ΔVif, or pcDNA3.1 (as a control) into 293T cells. Immediately following transfection, 5 μM Compound II (redoxal) was used to treat the 293T cells. After 48 hours post-transfection, culture supernatants were subjected to ultracentrifuge to pellet down the virus. Viral lysates were analyzed by Western blot.
On the technique in general: A western blot detects proteins with antibodies after separation by electrophoresis.

In test [5] the test system is HIV IIIB virus. Description: MAGI assay of HIV infectivity in TZM-bl cells. The class given is cell-based, HIV-1. Particulars: Human immunodeficiency virus 1, IIIB, 48 h, read-out: IC50 antiviral activity. From the text:
MAGI assay is a classical method for measuring HIV infectivity (Platt E J et at J Virol 72:2855-2864 (1998)). The assay involves HIV infecting a reporter cell line, the TZM-bl cell line (Platt E J et at J Virol 72:2855-2864 (1998); Derdeyn C A et al. J Virol 74:8358-8367 (2000); Wei X et al. Antimicrob Agents Chemother 46:1896-1905 (2002)). The TZM-bl cell line is a Hela cell derivative that expresses CD4, rendering the cells permissive to HIV-1 infection. These cells also contain an integrated LTR-luciferase and β-galactosidase reporter genes, resulting in expression of firefly luciferase and β-galactosidase protein following HIV-1 integration and subsequent expression of the viral transactivator, Tat.
300 ng of p24 content of HIV IIIB virus was used to infect TZM-bl cells. Different doses of Compound II (redoxal) and C5 were used to treat the infected cells. DMSO treatment was used as a control. Two days post-infection, cells were fixed and β-galactosidase was stained to visualize the infected cells.

In test [6] the target is T1, Vif function of inhibiting A3G CDA. The class given is biochemical, HIV-1. The note with it: dose-response retest in qPCR-based CDA assay. (In qPCR the cycle at which signal appears reflects the starting amount.)

The structures appear in SMILES notation. Where two headings read alike, the source gives them in different places.

T1 sequence (P69723 whole entry): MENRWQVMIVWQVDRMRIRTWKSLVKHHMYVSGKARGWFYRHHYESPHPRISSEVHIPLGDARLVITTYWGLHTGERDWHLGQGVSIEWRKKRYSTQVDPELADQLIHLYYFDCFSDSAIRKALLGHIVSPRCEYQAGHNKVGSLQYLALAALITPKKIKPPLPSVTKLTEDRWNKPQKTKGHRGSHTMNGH

As usually defined, the EC50 is the concentration giving half of the maximal effect. In the case of `C=CC1=C(C(=O)O)N2C(=O)[C@@H](NC(=O)/C(=N\OCC(=O)O)c3csc(N)n3)[C@H]2SC1` [Compound I, cefixime, reference compound], the “restoration of Stu I digestion product” value in test [1] (10 μM) is recorded as “dramatically restored the digestion product”. In addition, in test [2], the concentration for a half-maximal effect (EC50) was more than 500 µM and the “hit for restoring A3G CDA in the presence of Vif” value (“hit for restoring A3G CDA” below) is reported as “hits”.
Broadly, the IC50 is the concentration that inhibits the measured activity by half. In the case of `COc1cc(-c2ccc(Nc3ccccc3C(=O)O)c(OC)c2)ccc1Nc1ccccc1C(=O)O` [Compound II, redoxal], in test [3], the 50% inhibitory concentration (IC50) was 0.6 to 3 µM. The “restoration of Stu I digestion product” value in test [1] (50 μM) was “dramatically restored the digestion product”. In addition, in test [4] (FIG. 8), the A3G expression result is “enhances A3G expression independent of Vif”, the Gag processing patterns entry was “may alter Gag processing patterns” and the “overall Gag expression” value is on record as “reduces overall Gag expression”. Also, the “overall Gag expression” value in test [4] (FIG. 8, listed as redoxal) is given as “reduced overall Gag expression”. For the same molecule, in test [2], the EC50 was less than 12.5 µM and the “hit for restoring A3G CDA” value is “hits”. In addition, the concentration for half-maximal inhibition (IC50) in test [5] was less than 4 µM.
For `Cn1c(SCc2ccccn2)nc2c1c(=O)[nH]c(=O)n2C` [Compound VII], the “hit for restoring A3G CDA” value in test [2] is “hits”.
On the same count and under the same terms, under `Oc1ccccc1-c1nc2c3ccccc3c3ccccc3c2[nH]1` [Compound VI] stands “hits”; under `O=c1c2ccccc2ncn1-c1ccc(Cl)cc1` [Compound V], “hits”.
For `O=c1c(-c2ccc(O)cc2)coc2cc(O)cc(O)c12` [III, genistein], the activity in retest entry in test [6] is recorded as “did not show any activity”. Further, in test [2], the “hit for restoring A3G CDA” value is recorded as “hits”.
The matching figures for `C[C@@H]1C/C=C/C=C/C=C/C=C/[C@H](O[C@@H]2O[C@H](C)[C@@H](O)[C@H](N)[C@@H]2O)C[C@@H]2O[C@](O)(C[C@@H](O)C[C@H]3O[C@@H]3/C=C/C(=O)O1)C[C@H](O)[C@H]2C(=O)O` [IV, natamycin, reference compound]: “did not show any activity” and “hits”.

(Values after US20230416852A1, “METHODS FOR IDENTIFYING COMPOSITIONS FOR INHIBITING VIRAL INFECTIVITY” (priority 2020, published 2023).)
